In one data set the test system is abdominal adipose tissue. Put plainly: Intraperitoneal (i.p.) injection to mice, gross pathology and abdominal fat. It is filed as in vivo. As for the experimental part:
42 wks old male mice (35-42 g body wt.) were i.p. injected with either vehicle (=Control, 10 mice) or with MTK-012 dissolved in that vehicle (10 mice).
Vehicle composition: aqueous solution of 4% Tween20 (Sigma, P7949) and 20% Propylene-Glycol (Sigma, P4347).
MTK-012 was dissolved in vehicle composition at a final concentration of 5 mg/ml.
The mice were initially (t=0) injected a dose of 20 mg/kg, or the equivalent volume of vehicle to the controls (solid arrow in FIG. 1). Three weeks later the mice were injected a double dose of 40 mg/kg of MTK-012 or 40 mg/kg of vehicle (broken arrow in FIG. 1).
Body weight was measured once a week; the results are shown in FIG. 1 and expressed as the % change in body weight relative to the body weight on day 0.
At t=6 wks the animals were sacrificed and dissected for gross pathology.

The next data set has as its system s.c. adipose tissue. Put plainly: Single subcutaneous (s.c.) injection to rats, s.c. fat. It is filed as in vivo, SD male rats. As to conditions: single s.c. 25 mg/kg at 5 sites on left side, examined after 3 weeks. The procedure: SD male rats of about 400 g body weight were s.c. injected once (t=0) following light anesthesia with Ketamine-Xylazine.
MTK-012, at a final concentration of 10 mg/ml, was dissolved in a vehicle containing: 2.3% sodium decanoate (C10, Sigma, C4151), 2.3% sodium dodecanoate (C12, Sigma, L9755), 10% Solutol HS 15 (BASF, cat#06466701), 40% Propylene-Glycol (Sigma, P4347) and 45% Triacetin (Aldrich, cat#525073).
The injection of 1 ml MTK-012 (=25 mg/kg) was performed as follows: the left side of the rats body was shaved and s.c. injections, 0.2 ml each, were administered at 5 sites, equally distributed along the left side of the rats. The rats were sacrificed after 3 weeks and inner part of their skin was examined. It is evident that the s.c. adipose tissue was reduced (visibly shown) in the treated rats (FIGS. 3B and 3D), as manifested by the exposure of the underneath blood vessels, as compared with the same anatomical area in FIGS. 3A and 3C. It should be noted that although the injection was performed unilaterally, the effect expand to the entire subcutis.

The target of data set [1] is protein kinase CDC42-binding-protein-kinase-alpha (CDC42BPA or MRCKA) (Homo sapiens, UniProt Q5VT25). The experiment in a line: screening against 191 different protein kinases. It is filed as biochemical. As to conditions: screened against 191 different protein kinases.
Sequence of protein kinase CDC42-binding-protein-kinase-alpha (CDC42BPA or MRCKA) (Q5VT25 whole entry): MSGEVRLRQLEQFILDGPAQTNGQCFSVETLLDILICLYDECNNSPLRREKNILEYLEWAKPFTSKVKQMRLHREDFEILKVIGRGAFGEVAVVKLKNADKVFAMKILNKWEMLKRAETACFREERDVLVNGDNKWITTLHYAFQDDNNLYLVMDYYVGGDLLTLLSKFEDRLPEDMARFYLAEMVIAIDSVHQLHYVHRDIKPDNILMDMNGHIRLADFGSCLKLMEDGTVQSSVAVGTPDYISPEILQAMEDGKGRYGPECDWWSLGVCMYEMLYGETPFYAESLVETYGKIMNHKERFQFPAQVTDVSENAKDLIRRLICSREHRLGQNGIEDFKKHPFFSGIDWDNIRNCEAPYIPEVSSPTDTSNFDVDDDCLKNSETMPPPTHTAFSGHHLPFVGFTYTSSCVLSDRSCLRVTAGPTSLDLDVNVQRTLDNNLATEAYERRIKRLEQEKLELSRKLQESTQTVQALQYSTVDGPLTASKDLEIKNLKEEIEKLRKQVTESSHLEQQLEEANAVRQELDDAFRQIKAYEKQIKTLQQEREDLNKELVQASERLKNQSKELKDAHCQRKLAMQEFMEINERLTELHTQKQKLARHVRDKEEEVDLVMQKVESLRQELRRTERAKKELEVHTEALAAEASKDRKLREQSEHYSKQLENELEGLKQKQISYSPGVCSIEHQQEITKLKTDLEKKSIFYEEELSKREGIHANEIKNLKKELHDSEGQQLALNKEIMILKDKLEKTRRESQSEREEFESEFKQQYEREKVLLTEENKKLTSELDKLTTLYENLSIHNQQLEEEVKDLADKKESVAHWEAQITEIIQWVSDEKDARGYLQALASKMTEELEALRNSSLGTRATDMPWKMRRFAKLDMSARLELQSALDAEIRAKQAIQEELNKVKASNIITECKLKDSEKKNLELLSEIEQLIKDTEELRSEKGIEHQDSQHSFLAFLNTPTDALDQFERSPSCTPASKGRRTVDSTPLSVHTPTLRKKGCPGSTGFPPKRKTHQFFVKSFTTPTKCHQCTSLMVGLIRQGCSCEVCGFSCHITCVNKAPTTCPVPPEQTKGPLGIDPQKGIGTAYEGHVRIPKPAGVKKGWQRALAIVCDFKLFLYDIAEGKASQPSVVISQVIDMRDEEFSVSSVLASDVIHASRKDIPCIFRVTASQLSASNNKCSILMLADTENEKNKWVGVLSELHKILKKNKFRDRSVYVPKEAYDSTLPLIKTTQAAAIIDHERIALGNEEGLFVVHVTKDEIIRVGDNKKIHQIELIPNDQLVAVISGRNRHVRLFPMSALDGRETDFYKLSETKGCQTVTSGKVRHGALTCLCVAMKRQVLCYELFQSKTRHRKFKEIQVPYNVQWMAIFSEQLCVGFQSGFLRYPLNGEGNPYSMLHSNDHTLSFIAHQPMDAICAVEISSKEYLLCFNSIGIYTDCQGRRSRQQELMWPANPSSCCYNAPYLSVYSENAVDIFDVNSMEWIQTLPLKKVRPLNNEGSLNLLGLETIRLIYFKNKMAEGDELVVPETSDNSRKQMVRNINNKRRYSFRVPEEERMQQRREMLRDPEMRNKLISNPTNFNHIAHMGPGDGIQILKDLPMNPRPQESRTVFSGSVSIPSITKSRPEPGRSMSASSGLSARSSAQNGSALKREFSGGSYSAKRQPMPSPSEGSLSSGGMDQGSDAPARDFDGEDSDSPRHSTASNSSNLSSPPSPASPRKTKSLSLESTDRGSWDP
A further data set has as its system nap WAT. Put plainly: Intra-nap fat-pad injection to Psammomys on high-fat diet, nap WAT. Type of data set: in vivo. The procedure:
Ten 2-month old female pasmmomys were subjected to high-fat diet for 5 weeks prior to commencement of experiment.
0.1 ml vehicle (2.3% sodium decanoate (C10, Sigma, C4151), 2.3% sodium dodecanoate (C12, Sigma, L9755), 10% Solutol HS 15 (BASF, cat#06466701), 40% Propylene-Glycol (Sigma, P4347) and 45% Triacetin (Aldrich, cat#525073))
0.1 ml MTK-012 (concentration of 4 mg/ml in above vehicle).
0.1 ml MTK-013 (concentration of 4 mg/ml in above vehicle).
Intra nap fat-pad injections of each composition were administered to animals in each treatment groups (3, 3, and 4 animals in each treatment group respectively), twice a week for 2 weeks, while on high-fat diet. All animals were sacrificed after 4 days from last injection.
Table 1 below provides the results of nap WAT weight after 4 days from treatment.

One compound from patent publication US9447040B2, “Tricyclic compounds, compositions comprising them and uses thereof” (YISSUM RESEARCH DEVELOPMENT COMPANY OF THE HEBREW …, priority 2011, dated 2016) can be followed below.

SMILES strings stand for the structures. Several values for one entry are separate records, joined by “and”; a condition that tells them apart may be missing. Equal values may be shown once. Entries after “also recorded” stand apart in the source; their conditions may differ.

Consider `C[N+](C)(C)CCCCCn1c2ccc(Br)cc2c2cc(Br)ccc21.[Cl-]` [MTK-012, 5-(3,6-dibromo-9H-carbazol-9-yl)-N,N,N-trimethylpentan-1-aminium chloride], for which the “general condition of treated animals” value with abdominal adipose tissue (42 wks old male mice, i.p. 20 mg/kg at t=0 and 40 mg/kg three weeks later) was “well and active, similar to the controls”. Further, the “abdominal adipose tissue / abdominal fat-mass” value with abdominal adipose tissue (mice at t=6 wks, i.p. 20 mg/kg then 40 mg/kg, vs vehicle control) was “reduction in abdominal fat-mass; also recorded: ablation of the abdominal adipose tissue”. Besides, the “gross pathology, changes other than adipose tissue” value in the data set on abdominal adipose tissue (mice sacrificed at t=6 wks, i.p. 20 mg/kg then 40 mg/kg) is recorded as “No apparent change”. The “s.c. adipose tissue (subcutaneous fat)” value in the data set on s.c. adipose tissue was “reduction in subcutaneous fat; also recorded: reduced”. For the same compound, the “inhibition of protein kinase CDC42BPA (MRCKA) in screen” value in data set [1] was “significantly selective inhibition”. Besides, the “Nap WAT (g), single animals” value in the data set with nap WAT (0.1 ml of 4 mg/ml intra nap fat-pad, twice a week for 2 weeks, 4 days after last injection) was 3.7 g and 4.1 g and 4.6 g and 3.0 g. Moreover, the “Nap WAT Average (g) ± SEM” value with nap WAT (0.1 ml of 4 mg/ml intra nap fat-pad, twice a week for 2 weeks, 4 days after last injection, vehicle 5.30 ± 0.21) is recorded as 3.85 ± 0.34 g. Moreover, the “reduction in WAT as compared with vehicle” value with nap WAT (nap WAT weight 4 days after treatment) is listed as “significant reduction”.
